Results published in ChEMBL document CHEMBL1132968, “Substituent effects on the antibacterial activity of nitrogen-carbon-linked (azolylphenyl)oxazolidinones with expanded activity against the fastidious gram-negative organisms Haemophilus influenzae and Moraxella catarrhalis” (2000).
In brackets after ≈: the same amount, converted by molar mass.

Columns and labels:
Assay type in all cases: functional
Haemophilus influenzae = test: Inhibitory activity against Haemophilus influenzae UC30063
Staphylococcus aureus [1] = test: Inhibitory activity against Methicillin-susceptible Staphylococcus aureus UC9213
[2] = system: Staphylococcus epidermidis; test: Inhibitory activity against Methicillin-resistant Staphylococcus epidermidis UC12084
Enterococcus faecalis = test: Inhibitory activity against Enterococcus faecalis UC9217
Moraxella catarrhalis = test: Inhibitory activity against Moraxella catarrhalis UC30610
Streptococcus pneumoniae = test: Inhibitory activity against Streptococcus pneumoniae UC9912
Staphylococcus aureus [3] = test: Inhibitory activity against Methicillin-resistant Staphylococcus aureus UC6685

| Structure (SMILES) | MIC (Haemophilus influenzae) | MIC (Staphylococcus aureus [1]) | MIC [2] | MIC (Enterococcus faecalis) | MIC (Moraxella catarrhalis) | MIC (Streptococcus pneumoniae) | MIC (Staphylococcus aureus [3]) |
| --- | --- | --- | --- | --- | --- | --- | --- |
| CC(=O)NC[C@H]1CN(c2ccc(-n3cnc(C=O)n3)c(F)c2)C(=O)O1 | 8 µg/mL (≈ 23 µM) | 4 µg/mL (≈ 11.5 µM) | 0.5 µg/mL (≈ 1.44 µM) | 4 µg/mL (≈ 11.5 µM) | 8 µg/mL (≈ 23 µM) | 0.5 µg/mL (≈ 1.44 µM) | 2 µg/mL (≈ 5.76 µM) |
| CC(=O)NC[C@H]1CN(c2ccc(-n3cnc(C)n3)c(F)c2)C(=O)O1 | > 16 µg/mL | 8 µg/mL (≈ 24 µM) | 2 µg/mL (≈ 6 µM) | 8 µg/mL (≈ 24 µM) | 16 µg/mL (≈ 48 µM) | 1 µg/mL (≈ 3 µM) | 4 µg/mL (≈ 12 µM) |
| CC(=O)NC[C@H]1CN(c2ccc(-n3ccc(NC(C)=O)n3)c(F)c2)C(=O)O1 | > 16 µg/mL | 8 µg/mL (≈ 21.3 µM) | 2 µg/mL (≈ 5.33 µM) | 4 µg/mL (≈ 10.7 µM) | > 16 µg/mL | 0.5 µg/mL (≈ 1.33 µM) | 8 µg/mL (≈ 21.3 µM) |
| CC(=O)NC[C@H]1CN(c2ccc(-n3nccn3)c(F)c2)C(=O)O1 | > 16 µg/mL | 4 µg/mL (≈ 12.5 µM) | 1 µg/mL (≈ 3.13 µM) | 4 µg/mL (≈ 12.5 µM) | > 16 µg/mL | 1 µg/mL (≈ 3.13 µM) | 2 µg/mL (≈ 6.26 µM) |
| CNC(=O)c1cn(-c2ccc(N3C[C@H](CNC(C)=O)OC3=O)cc2F)nn1 | > 16 µg/mL | 8 µg/mL (≈ 21.3 µM) | 2 µg/mL (≈ 5.31 µM) | 8 µg/mL (≈ 21.3 µM) | > 16 µg/mL | 1 µg/mL (≈ 2.66 µM) | 4 µg/mL (≈ 10.6 µM) |
| CCOC(=O)CCc1ccn(-c2ccc(N3C[C@H](CNC(C)=O)OC3=O)cc2F)c1 | > 16 µg/mL | 4 µg/mL (≈ 9.58 µM) | 1 µg/mL (≈ 2.4 µM) | 2 µg/mL (≈ 4.79 µM) | 2 µg/mL (≈ 4.79 µM) | 0.5 µg/mL (≈ 1.2 µM) | 4 µg/mL (≈ 9.58 µM) |
| CC(=O)NC[C@H]1CN(c2ccc(-n3ccc(OC(C)=O)n3)c(F)c2)C(=O)O1 | 16 µg/mL (≈ 42.5 µM) | 8 µg/mL (≈ 21.3 µM) | 1 µg/mL (≈ 2.66 µM) | 8 µg/mL (≈ 21.3 µM) | 8 µg/mL (≈ 21.3 µM) | 1 µg/mL (≈ 2.66 µM) | 8 µg/mL (≈ 21.3 µM) |
| COc1ccn(-c2ccc(N3C[C@H](CNC(C)=O)OC3=O)cc2F)n1 | 16 µg/mL (≈ 45.9 µM) | 8 µg/mL (≈ 23 µM) | 2 µg/mL (≈ 5.74 µM) | 16 µg/mL (≈ 45.9 µM) | 16 µg/mL (≈ 45.9 µM) | 2 µg/mL (≈ 5.74 µM) | 8 µg/mL (≈ 23 µM) |
| CC(=O)NC[C@H]1CN(c2ccc(-n3ccc(C(C)O)c3)c(F)c2)C(=O)O1 (stereo partly drawn) | > 16 µg/mL | 16 µg/mL (≈ 44.3 µM) | 4 µg/mL (≈ 11.1 µM) | 8 µg/mL (≈ 22.1 µM) | > 16 µg/mL | 2 µg/mL (≈ 5.53 µM) | 16 µg/mL (≈ 44.3 µM) |
| CO/N=C(/C)c1ccn(-c2ccc(N3C[C@H](CNC(C)=O)OC3=O)cc2F)c1 | > 16 µg/mL | 4 µg/mL (≈ 10.3 µM) | 1 µg/mL (≈ 2.57 µM) | 2 µg/mL (≈ 5.15 µM) | 8 µg/mL (≈ 20.6 µM) | 0.5 µg/mL (≈ 1.29 µM) | 2 µg/mL (≈ 5.15 µM) |
| CC(=O)NC[C@H]1CN(c2ccc(-n3cc(I)cn3)c(F)c2)C(=O)O1 | > 16 µg/mL | 2 µg/mL (≈ 4.5 µM) | 1 µg/mL (≈ 2.25 µM) | 2 µg/mL (≈ 4.5 µM) | 8 µg/mL (≈ 18 µM) | 0.5 µg/mL (≈ 1.13 µM) | 2 µg/mL (≈ 4.5 µM) |
| CC(=O)NC[C@H]1CN(c2ccc(-n3cnc(CO)n3)c(F)c2)C(=O)O1 | 16 µg/mL (≈ 45.8 µM) | 16 µg/mL (≈ 45.8 µM) | 2 µg/mL (≈ 5.73 µM) | 16 µg/mL (≈ 45.8 µM) | 8 µg/mL (≈ 22.9 µM) | 1 µg/mL (≈ 2.86 µM) | 16 µg/mL (≈ 45.8 µM) |
| CC(=O)NC[C@H]1CN(c2ccc(-n3cnc(NC(=O)Cc4ccccc4)n3)c(F)c2)C(=O)O1 | > 16 µg/mL | > 16 µg/mL | > 16 µg/mL | > 16 µg/mL | > 16 µg/mL | 2 µg/mL (≈ 4.42 µM) | – |
| CC(=O)NC[C@H]1CN(c2ccc(-n3cnc(N)n3)c(F)c2)C(=O)O1 | > 16 µg/mL | 8 µg/mL (≈ 23.9 µM) | 2 µg/mL (≈ 5.98 µM) | 16 µg/mL (≈ 47.9 µM) | 16 µg/mL (≈ 47.9 µM) | 1 µg/mL (≈ 2.99 µM) | 4 µg/mL (≈ 12 µM) |
| CC(=O)NC[C@H]1CN(c2ccc(-n3cc(C(N)=O)nn3)c(F)c2)C(=O)O1 | > 16 µg/mL | 4 µg/mL (≈ 11 µM) | 1 µg/mL (≈ 2.76 µM) | 8 µg/mL (≈ 22.1 µM) | 8 µg/mL (≈ 22.1 µM) | 0.5 µg/mL (≈ 1.38 µM) | 4 µg/mL (≈ 11 µM) |
| CC(=O)NC[C@H]1CN(c2ccc(-n3ccc(N)n3)c(F)c2)C(=O)O1 | 16 µg/mL (≈ 48 µM) | 2 µg/mL (≈ 6 µM) | 1 µg/mL (≈ 3 µM) | 4 µg/mL (≈ 12 µM) | 16 µg/mL (≈ 48 µM) | 0.5 µg/mL (≈ 1.5 µM) | 4 µg/mL (≈ 12 µM) |
| CC(=O)NC[C@H]1CN(c2ccc(-n3cnc(C#N)n3)c(F)c2)C(=O)O1 | 16 µg/mL (≈ 46.5 µM) | 4 µg/mL (≈ 11.6 µM) | 2 µg/mL (≈ 5.81 µM) | 4 µg/mL (≈ 11.6 µM) | 16 µg/mL (≈ 46.5 µM) | 1 µg/mL (≈ 2.9 µM) | 2 µg/mL (≈ 5.81 µM) |
| COC(=O)c1ncn(-c2ccc(N3C[C@H](CNC(C)=O)OC3=O)cc2F)n1 | > 16 µg/mL | > 16 µg/mL | 4 µg/mL (≈ 10.6 µM) | > 16 µg/mL | > 16 µg/mL | 4 µg/mL (≈ 10.6 µM) | – |
| CC(=O)NC[C@H]1CN(c2ccc(-n3cnc(C#N)c3)c(F)c2)C(=O)O1 | 8 µg/mL (≈ 23.3 µM) | 4 µg/mL (≈ 11.7 µM) | 0.5 µg/mL (≈ 1.46 µM) | 2 µg/mL (≈ 5.83 µM) | 4 µg/mL (≈ 11.7 µM) | 0.25 µg/mL (≈ 0.728 µM) | 4 µg/mL (≈ 11.7 µM) |
| CC(=O)NC[C@H]1CN(c2ccc(-n3ccc(C(F)(F)F)n3)c(F)c2)C(=O)O1 | > 16 µg/mL | 4 µg/mL (≈ 10.4 µM) | 2 µg/mL (≈ 5.18 µM) | 8 µg/mL (≈ 20.7 µM) | > 16 µg/mL | 1 µg/mL (≈ 2.59 µM) | 4 µg/mL (≈ 10.4 µM) |
